These results are taken from patent publication US20240246908A1 (ORION CORPORATION, priority 2021, published 2024).

For the assay, the system named is YAP-TEAD. Put plainly: TEAD inhibition, Hippo Pathway TEAD Reporter MCF-7 luciferase assay. It counts as cell-based. The following applies: Homo sapiens, MCF7, 24 h, Hippo Pathway TEAD Reporter MCF-7 cells, luciferase activity after 24 h; read-out: IC50 of the test compounds on YAP-TEAD inhibition (Group). The essentials: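 IC50 derived from ONE-Glo luciferase luminescence after 24 h compound exposure (11 concentrations in quadruplicate, 0.1% DMSO control). Reporter: MCF-7 line expressing firefly luciferase under TEAD elements, constitutively activated by nuclear YAP1.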
The term IC50 denotes the concentration that inhibits the measured activity by half. Regarding `COCC(=O)N1C(=O)CCC1C(=O)Nc1cc(Oc2cc(C(F)(F)F)ccn2)ccc1OC` (stereo not drawn) [Compound 331, N-(2-Methoxy-5-((4-(trifluoromethyl)-pyridin-2-yl)oxy)phenyl)-1-(2-methoxyacetyl)-5-oxopyrrolidine-2-carboxamide], the IC50 lay within 50 to 300 nM. For the molecule `COc1ccc(Oc2ccc(C(F)(F)F)cc2)cc1NC(=O)[C@@H]1CN(C)C(=O)N1` [Compound 332, (S)—N-(2-Methoxy-5-(4-(trifluoromethyl)phenoxy)phenyl)-1-methyl-2-oxo-imidazolidine-4-carboxamide], the IC50 is 301 to 2000 nM.

For `COCC(=O)N1C(=O)CC[C@H]1C(=O)Nc1cc(Oc2ccc(C(F)(F)F)cc2)ccc1OC` [Compound 333, (S)—N-(2-Methoxy-5-(4-(trifluoromethyl)phenoxy)phenyl)-1-(2-methoxyacetyl)-5-oxopyrrolidine-2-carboxamide], the IC50 lay within 301 to 2000 nM. Consider `COCC(=O)N1C(=O)CCC1C(=O)Nc1cc(Oc2ncc(C(F)(F)F)cc2F)ccc1OC` (stereo not drawn) [Compound 334, N-(5-((3-Fluoro-5-(trifluoromethyl)pyridin-2-yl)oxy)-2-methoxyphenyl)-1-(2-methoxyacetyl)-5-oxopyrrolidine-2-carboxamide], for which the concentration for half-maximal inhibition (IC50) lay in the range of 50 to 300 nM. Then `COc1ccc(Oc2ccc(C(F)(F)F)cc2)cc1NC(=O)C1CNC(=O)C1` (stereo not drawn) [Compound 335, N-(2-Methoxy-5-(4-(trifluoromethyl)phenoxy)phenyl)-5-oxopyrrolidine-3-carboxamide], with less than 50 nM. For `COCC(=O)N1CCC[C@H]1C(=O)Nc1cc(Oc2ccc(C(F)(F)F)cc2)ccc1OC` [Compound 336, (S)—N-(2-Methoxy-5-(4-(trifluoromethyl)phenoxy)phenyl)-1-(2-methoxyacetyl)-pyrrolidine-2-carboxamide], the 50% inhibitory concentration (IC50) lay in the range of 50 to 300 nM. For the molecule `COc1ccc(Oc2ccc(C(F)(F)F)cc2)cc1NC(=O)[C@@H]1CCCN1CC(N)=O` [Compound 337, (S)-1-(2-Amino-2-oxoethyl)-N-(2-methoxy-5-(4-(trifluoromethyl)phenoxy)-phenyl)pyrrolidine-2-carboxamide], the half-maximal inhibitory concentration (IC50) was 50 to 300 nM. `COc1ccc(Oc2ccc(Cl)c(F)c2)cc1NC(=O)[C@@H]1CNC(=O)N1C` [Compound 338, (S)—N-(5-(4-Chloro-3-fluorophenoxy)-2-methoxyphenyl)-3-methyl-2-oxo-imidazolidine-4-carboxamide]: the IC50 was less than 50 nM.

In the case of `COc1ccc(Oc2ncc(C(F)(F)F)cc2F)cc1NC(=O)[C@@H]1CNC(=O)N1C` [Compound 339, (S)—N-(5-((3-Fluoro-5-(trifluoromethyl)pyridin-2-yl)oxy)-2-methoxyphenyl)-3-methyl-2-oxoimidazolidine-4-carboxamide], the half-maximal inhibitory concentration (IC50) is less than 50 nM. Then `COc1ccc(Oc2ccc(C(F)F)cc2)cc1NC(=O)[C@@H]1CNC(=O)N1C` [Compound 340, (S)—N-(5-(4-(Difluoromethyl)phenoxy)-2-methoxyphenyl)-3-methyl-2-oxo-imidazolidine-4-carboxamide], with less than 50 nM. Regarding `COc1ccc(Oc2ccc(C(F)(F)F)cc2)cc1NC(=O)CC1C(=O)N(C)C(=O)N1C` (stereo not drawn) [Compound 341, 2-(1,3-Dimethyl-2,5-dioxoimidazolidin-4-yl)-N-(2-methoxy-5-(4-(trifluoro-methyl)phenoxy)phenyl)acetamide], the IC50 lay in the range of 301 to 2000 nM. With `COc1ccc(Oc2ccc(C(F)(F)F)cc2)cc1NC(=O)[C@@H]1CN(C)C(=O)N1C(C)=O` [Compound 342, (S)-3-Acetyl-N-(2-methoxy-5-(4-(trifluoromethyl)phenoxy)phenyl)-1-methyl-2-oxoimidazolidine-4-carboxamide], the concentration for half-maximal inhibition (IC50) lay in the range of 50 to 300 nM. `COc1ccc(Oc2ncc(C(F)(F)F)cc2F)cc1NC(=O)[C@@H]1CN(C)C(=O)N1C(C)=O` [Compound 343, (S)-3-Acetyl-N-(5-((3-fluoro-5-(trifluoromethyl)pyridin-2-yl)oxy)-2-methoxy-phenyl)-1-methyl-2-oxoimidazolidine-4-carboxamide]: the 50% inhibitory concentration (IC50) lay within 301 to 2000 nM. Then `COc1ccc(Oc2ccc(C(F)(F)F)cn2)cc1NC(=O)C1CNC(=O)C1` (stereo not drawn) [Compound 344, N-(2-Methoxy-5-((5-(trifluoromethyl)pyridin-2-yl)oxy)phenyl)-5-oxopyrrolidine-3-carboxamide carboxamide], with 301 to 2000 nM; and `COc1ccc(Oc2ncc(C(F)(F)F)cc2Cl)cc1NC(=O)[C@@H]1CNC(=O)N1C` [Compound 345, (S)—N-(5-((3-Chloro-5-(trifluoromethyl)pyridin-2-yl)oxy)-2-methoxyphenyl)-3-methyl-2-oxoimidazolidine-4-carboxamide], with less than 50 nM; and `COc1ccc(Oc2ccc(C(F)(F)F)cn2)cc1NC(=O)[C@@H]1CN(C)C(=O)N1C` [Compound 346, (S)—N-(2-Methoxy-5-((5-(trifluoromethyl)pyridin-2-yl)oxy)phenyl)-1,3-dimethyl-2-oxoimidazolidine-4-carboxamide], with 50 to 300 nM. Then `COCC(=O)N1CCC[C@@H]1C(=O)Nc1cc(Oc2ccc(C(F)(F)F)cc2)ccc1OC` [Compound 347, (R)—N-(2-Methoxy-5-(4-(trifluoromethyl)phenoxy)phenyl)-1-(2-methoxyacetyl)-pyrrolidine-2-carboxamide], with 301 to 2000 nM; and `COc1ccc(Oc2cccc(Cl)c2)cc1NC(=O)[C@@H]1CNC(=O)N1C` [Compound 348, (S)—N-(5-(3-Chlorophenoxy)-2-methoxyphenyl)-3-methyl-2-oxoimidazolidine-4-carboxamide], with less than 50 nM. As for `COc1ccc(Oc2ccc(C(F)(F)F)cc2)cc1NC(=O)C1CC(=O)N(C)C1` (stereo not drawn) [Compound 349, N-(2-Methoxy-5-(4-(trifluoromethyl)phenoxy)phenyl)-1-methyl-5-oxo-pyrrolidine-3-carboxamide], the IC50 is less than 50 nM. In the case of `COc1ccc(Oc2ccc(C(F)(F)F)cc2Cl)cc1NC(=O)C1CCC(=O)N1` (stereo not drawn) [Compound 350, N-(5-(2-Chloro-4-(trifluoromethyl)phenoxy)-2-methoxyphenyl)-5-oxopyrrolidi-ne-2-carboxamide], the IC50 is 50 to 300 nM. Regarding `CN1C(=O)NC[C@H]1C(=O)Nc1cc(Cl)cc(Oc2ccc(C(F)(F)F)cn2)c1` [Compound 351, (S)—N-(3-Chloro-5-((5-(trifluoromethyl)pyridin-2-yl)oxy)phenyl)-3-methyl-2-oxoimidazolidine-4-carboxamide], the 50% inhibitory concentration (IC50) is less than 50 nM. For `CN1C(=O)CCC1C(=O)Nc1cc(Cl)cc(Oc2ccc(C(F)(F)F)cn2)c1` (stereo not drawn) [Compound 352, N-(3-Chloro-5-((5-(trifluoromethyl)pyridin-2-yl)oxy)phenyl)-1-methyl-5-oxopyrrolidine-2-carboxamide], the 50% inhibitory concentration (IC50) was less than 50 nM. Take `COc1ccc(Oc2ccc(CF)cc2)cc1NC(=O)[C@@H]1CNC(=O)N1C` [Compound 353, (S)—N-(5-(4-(Fluoromethyl)phenoxy)-2-methoxyphenyl)-3-methyl-2-oxoimidazolidine-4-carboxamide]: the IC50 lay within 301 to 2000 nM. Take `COC(=O)CN1C(=O)CCC1C(=O)Nc1cc(Oc2ccc(C(F)(F)F)cc2)ccc1OC` (stereo not drawn) [Compound 354, Methyl 2-(2-((2-methoxy-5-(4-(trifluoromethyl)phenoxy)phenyl)carbamoyl)-5-oxopyrrolidin-1-yl)acetate]: the IC50 was in the range of 301 to 2000 nM. Take `COc1ccc(Oc2ccc(C(F)(F)F)cc2)cc1NC(=O)[C@@H]1CNC(=O)C1` [Compound 355, (S)—N-(2-Methoxy-5-(4-(trifluoromethyl)phenoxy)phenyl)-5-oxopyrrolidine-3-carboxamide]: the 50% inhibitory concentration (IC50) is less than 50 nM. For the molecule `COc1ccc(Oc2ccc(Cl)cc2)cc1NC(=O)[C@@H]1CNC(=O)N1C` [Compound 356, (S)—N-(5-(4-Chlorophenoxy)-2-methoxyphenyl)-3-methyl-2-oxoimidazolidine-4-carboxamide], the concentration for half-maximal inhibition (IC50) is less than 50 nM. In the case of `COc1ccc(Oc2ccc(C(F)(F)F)cc2)cc1NC(=O)[C@H]1CNC(=O)C1` [Compound 357, (R)—N-(2-Methoxy-5-(4-(trifluoromethyl)phenoxy)phenyl)-5-oxopyrrolidine-3-carboxamide], the IC50 was 50 to 300 nM. In the case of `COc1ccc(Oc2ncc(C(F)(F)F)cc2F)cc1NC(=O)[C@@H]1CCCN1C(C)=O` [Compound 358, (S)-1-Acetyl-N-(5-((3-fluoro-5-(trifluoromethyl)pyridin-2-yl)oxy)-2-methoxyphenyl)pyrrolidine-2-carboxamide], the IC50 lay within 301 to 2000 nM. With `COc1ccc(Oc2ncc(C(F)(F)F)cc2F)cc1NC(=O)[C@@H]1CN(C)C(=O)N1C` [Compound 359, (S)—N-(5-((3-Fluoro-5-(trifluoromethyl)pyridin-2-yl)oxy)-2-methoxyphenyl)-1,3-dimethyl-2-oxoimidazolidine-4-carboxamide], the 50% inhibitory concentration (IC50) was in the range of 50 to 300 nM.

As to `CN1C[C@@H](C(=O)Nc2cc(Oc3ccc(C(F)(F)F)cn3)cc3c2OCO3)N(C)C1=O` [Compound 360, (S)-1,3-Dimethyl-2-oxo-N-(6-((5-(trifluoromethyl)pyridin-2-yl)oxy)benzo[d]-[1,3]dioxol-4-yl)imidazolidine-4-carboxamide], the IC50 lay in the range of 50 to 300 nM. As for `CN1C(=O)NC[C@H]1C(=O)Nc1cc(Oc2ccc(C(F)(F)F)cn2)c(F)cc1F` [Compound 361, (S)—N-(2,4-Difluoro-5-((5-(trifluoromethyl)pyridin-2-yl)oxy)phenyl)-3-methyl-2-oxoimidazolidine-4-carboxamide], the IC50 was less than 50 nM. As for `CN1C(=O)NC[C@H]1C(=O)Nc1cc(F)cc(Oc2ccc(C(F)(F)F)cn2)c1` [Compound 362, (S)—N-(3-Fluoro-5-((5-(trifluoromethyl)pyridin-2-yl)oxy)phenyl)-3-methyl-2-oxoimidazolidine-4-carboxamide], the IC50 was less than 50 nM. `CN1C(=O)CC[C@H]1C(=O)Nc1cc(Oc2ccc(C(F)(F)F)cc2)ccc1F` [Compound 363, (S)—N-(2-Fluoro-5-(4-(trifluoromethyl)phenoxy)phenyl)-1-methyl-5-oxo-pyrrolidine-2-carboxamide]: the IC50 was less than 50 nM.
